These results are taken from patent US9730679B1, “Device for sterile uterine sampling and drug delivery” (University of South Florida, priority 2012, dated 2017).

Values after ≈ are worked out from the molar mass of the structure shown.

Data set [1] deals with Escherichia coli (ATCC 25922). Briefly: Minimum inhibitory concentration, visual turbidimetric method with OD600 of MIC tubes. The settings on record: ATCC25922, 4 h, E. coli, four hours incubation at 37° C., read-out: minimum inhibitory doxycycline concentration, MIC. In kind it is cell-based. Here is the method: To determine the antibacterial activity of the doxycycline-loaded chitosan nanoparticles, minimum inhibitory concentrations (MICs) and minimum bactericidal concentrations (MBCs) were evaluated. The procedures for both assays were adopted from Lee et al. (Blanchet […]. Forward Selection of Explanatory Variables. Ecology. 2008; 89:2623-2632). MIC is the lowest concentration of DCNPs that inhibits bacterial growth. For the analyses, a visual turbidimetric method was used. Freshly prepared nanoparticles, blank and drug-loaded, were UV-sterilized for ten minutes. […] A 500 μL aliquot of this solution with sterilized particles was added to a tube containing Luria-Bertani (LB) broth for a total volume of 2 mL. A serial dilution, with a dilution factor of 0.3, was performed for the remaining six tubes. A parallel series of experiments was also run using unencapsulated doxycycline. Under sterile conditions, the tubes containing particles were inoculated with 1.0×10^5 colony-forming units (CFUs)/mL of Escherichia coli cells in LB broth, then incubated at 37° C. under agitation for four hours. Following the incubation, the tubes were assessed visually for the appearance of turbidity (i.e., bacterial growth). […] All MIC tubes were analyzed to assess the amount of bacteria present by measuring optical density of the suspension at 600 nm (OD600) and then calculating the number of bacterial cells present.

For data set [2], the system named is normal human ovarian surface epithelial (OSE) cells. In kind it is cell-based. The settings on record: 5 days. Here is the method: Cytotoxicity of the DCNPs was determined by treating normal human ovarian surface epithelial (OSE) cells with different concentrations of doxycycline-loaded nanoparticles, then monitoring cell viability over the next five days. The OSE cells were cultured for 4 to 7 days in flasks containing medium199/MCDB105 media supplemented with 10% fetal bovine serum. The cells were removed from the flasks and counted, and then 100 μL of medium containing cells was added to the wells of a 96-well plate to give final cell concentrations of 5×10^2, 1.0×10^3, or 2.0×10^3 cells/mL. After 24 hours incubation at 37° C., the cells were treated with blank nanoparticles, DCNP4 (1 and 2 μg/mL), DCNP6 (1 and 2 μg/mL), or unencapsulated doxycycline (1 and 2 μg/mL). The plate was then incubated at 37° C. Bright microscopy was used to examine the cell morphology after treatment just before the assessing for cytotoxicity. Cytotoxicity was assessed on days 1, 3, and 5 by WST-1 assay. WST-1 assay reagent (10 μL) was added to each well, followed by incubation for another 4 hours at 37° C. and then spectrophotometric assessment of cell viability. […] This dye was quantified using a Biotex Synergy multiplate reader to measure absorbance at 450 nm (reference wavelength was 630 nm). All treatments were assayed in triplicate (n=3) and calculated according to equation 5: […]

Turning to `C[C@H]1c2cccc(O)c2C(=O)C2=C(O)[C@]3(O)C(=O)C(C(N)=O)=C(O)[C@@H](N(C)C)[C@@H]3[C@@H](O)[C@@H]21` [Doxy, Doxycycline], the MIC in data set [1] was 13 µg/mL (≈ 29.3 µM). In data set [2], the “decrease in cell viability” value was 61%.
